Data published in patent US10131558B1, “Compositions, methods, and/or systems for managing sulfide” (priority 2016, dated 2018).
Where “and” joins values, the source holds several entries; their conditions need not be identical. Identical values can stand only once.

Columns and labels:
[1] = Treatment of groundwater contaminated with BTEX and MtBE; conditions: 250 mL groundwater; 1 mL 35% H2O2, plus 1 mL Fe-GLC in the combination; untreated 171 ppb
[2] = as above; conditions: 250 mL groundwater; 1 mL 35% H2O2, plus 1 mL Fe-GLC in the combination; untreated 159 ppb
[3] = as above; conditions: 250 mL groundwater; 1 mL 35% H2O2, plus 1 mL Fe-GLC in the combination; untreated 56 ppb
[4] = Vapor suppression spray test, hydrogen sulfide above test water; conditions: no treatment 18
Method: A solution of ferric glucontate treatment was prepared using 2.0 M ferric gluconate solution along with distilled water to achieve a final concentration of ferric gluconate at 5 mg/ml, as ferric iron.
A five gallon bucket containing five liters of de-ionized water was infused with 10 parts per million of total sulfide using technical grade anhydrous Sodium Hydrosulfide. The pH of the water was then adjusted to a pH of 7.0 using a dilute solution of hydrochloric acid.
After cleaning the bucket for control testing for each study, five additional liters of de-ionized water was added and the same quantity of sulfide was infused into the fresh water and the pH adjusted to 7.0.

[5] = Treatment of groundwater contaminated with BTEX and MtBE; conditions: 250 mL groundwater; 1 mL 35% H2O2, plus 1 mL Fe-GLC in the combination; untreated 34 ppb
[6] = 10 min; 33 mg/l H2O2 (+44 μg/l VTX as total iron in the combination)
Method: This step was seen to minimize the amount of natural oxidation of added sulfide by sulfide-oxidizing bacteria present in the biosolids. Sodium hydrosulfide was added to 35 liters of wastewater to achieve a starting total sulfide concentration of ˜10 mg/l sulfide. The pH was adjusted within the aquarium to a pH of 7.0 using a dilute solution of hydrochloric acid.
The Odalog was affixed using a ring stand to achieve a one centimeter gap between the intake of the Odalog and the surface of the aquarium. […] Wastewater was pulled from near the bottom of the aquarium using a Watson-Marlow Peristaltic Pump capable of delivering 0.001-190 mls/minute. […] The volume of the line prior to discharge equated to ˜100 milliliters. A delivery spray system was mimicked by drilling small holes (0.35 mm) into 0.25 inch tubing distributed evenly above the aquarium. […] A filtration devise was installed in-line to minimize particle clogging with the intake in the tank above the settled biosolids to aid in this process.
No catalyst was added along with the peroxide in Treatment 3.
Testing for total sulfide in solution was conducted prior to beginning treatment at three depths.

Fecal Coliform = experiment: Disinfecting wastewater, peroxide alone vs Fe-GLC and peroxide; format: cell-based; conditions: 20 mg H2O2 (50 microliters 35%), plus 50 microliters Fe-GLC in the combination; after twenty minutes; control 2200
Text: A sample of wastewater was collected from the influent of the chlorine contact chamber of the York River Wastewater Treatment Plant in Yorktown, Va. The samples were divided equally into three clean 500 milliliter sample containers from the single sample taken. The first sample served as a control and was set aside. […] Each sample was capped and shaken briefly to mix the contents. After twenty minutes, sub-samples were taken from each vessel and pored into fecal coliform sample containers for analysis at the Hampton Roads Sanitary District lab.

[7] = Treatment of sulfides in municipal wastewater using ferric chelants and hydrogen peroxide
Method: Total sulfides were tested for using Standard Methods 4500-S^2− D with a Hach Chemical Company (of Loveland, Colo.) DR 2000 Spectrophotometer and reagents from Hach specific for this particular test. To keep total sulfides within the range of the test, samples were diluted with distilled water prior to conducting the test as per Hach instructions.
Tests for total sulfide were conducted after 5, 15, and 30 minutes of contact time on each of the seven liter test jars.

[8] = Treatment of groundwater contaminated with BTEX and MtBE; conditions: 250 mL groundwater; 1 mL 35% H2O2, plus 1 mL Fe-GLC in the combination; untreated 27 ppb
[9] = Treatment of 2,4-D with hydrogen peroxide alone against hydrogen peroxide/Fe-gluconate; conditions: 250 mL; 200 microliters 50% hydrogen peroxide, plus 200 microliters Fe-GLC in the combination; after four hours; untreated 130 ppb
Method: The dissolved sodium bicarbonate increased the alkalinity of the water somewhat, causing the water to mimic a natural water source. Two hundred fifty milliliters of this solution was distributed into three 500 mL Erlenmeyer flasks. […] The flasks were then covered with parafilm and swirled to facilitate mixing of the solution. After four hours a sample from each flask was taken to the pesticide lab at Virginia Tech and analyzed by gas chromatography (GC) for 2,4-D. The findings were as follows: […]

[10] = after 2 days; cited from earlier work
[11] = Full scale lagoon treatment system (spray)
Text: The system was designed to treat sulfide and recirculate sulfide-free wastewater from the lagoon in a continuous manner and reuse the treated wastewater in such a manner as to gain substantially complete control of hydrogen sulfide escaping to the atmosphere. […] The capping of the lagoon was accomplished by spray applying sulfide-free treated wastewater using a spray application system specifically designed to gain complete or nearly complete coverage of the surface area of the lagoon. Importantly, the spray application system imparted minimal mixing to the untreated surface of the lagoon. Any significant mixing of the surface water within the lagoon could be problematic for hydrogen sulfide release. Gently spray-applying sulfide-free water over the lagoon served to effectively cap the lagoon with minimal mixing, thus preventing gaseous sulfide from escaping to the atmosphere. Further, by assuring that the treated wastewater returning to the lagoon surface contained excess oxidation treatment chemicals, any fugitive sulfide that might have risen through the cap could be mitigated.
The water proceeding eastward turns north at the end of the lagoon and travelling back westward where it is pumped out of the lagoon at the northwest end.
This system is primarily driven by a large electrically powered Cornell pump denoted by the “Pump” box in FIG. 5. The pump sits on a 40′ wide elevated dyke that runs down the center of the lagoon. Water is pumped out of the northwest side of the lagoon via a 12″ HDPE “Pump Intake” pipe and flows through the Cornell pump and then down the dyke in the center of the lagoon via an 8″ HDPE main pipe. […] These injection locations are designated by the “1” and “2” circles in FIG. 5. T valves were installed into the 8″ main line, redirecting a portion of the water from the 8″ main pipe out to each of 27 different floats via 2″ HDPE piping. The Nelson F100 series Big Gun spray irrigation heads were mounted on the floats and directly connected to the 2″ HDPE piping. Around 47 PSI of water pressure was constantly maintained to allow sufficient working pressure for each of the 27 spray irrigation heads. The chemical being dosed into the line via the Verdeflex pumps was carefully calculated to ensure sufficient Ferric Gluconate and Hydrogen Peroxide were present in the line to not only ensure substantially complete destruction of all sulfide in the line but to provide a surplus of chemicals for additional treatment upon contact with any sulfides in the pond. […]
Prior to treatment initiation, samples were taken starting on Mar. […] A quantity of 45 gallons per hour (540 gallons per 12 hour period) of 50% Peroxide and 20 gallons per hour of Ferric Gluconate (240 gallons per 12 hour period) were pumped into the lagoon via the sprayer system.

[12] = tested on: total heterotrophic bacteria; experiment: Disinfection of wastewater using chelated iron compounds; format: cell-based; conditions: 30 min, raw average 18,188 CFUs
Method: The clarified supernatant was then pored off of the top of the settled solids within the sample. The supernatant was then mixed and four samples were collected to determine untreated heterotrophic bacteria counts. […] were dissolved in distilled water at 0.4334M. Ferric chloride was added in amounts to achieve saturation of chelant sites on the respective chelants. […] Twenty individual liter samples of supernatant were then decanted from the well-mixed wastewater sample for testing. Four chelated iron products with peroxide were tested at two test concentrations and compared to samples receiving peroxide only and iron chelate only. […] Samples were then decanted to sterile sample containers containing sodium thiosulfate to stop the oxidation process and preserve the sample. Samples were then placed in a refrigerator until all samples were finished. Samples were packaged in a standard cooler with ice packs and sent via overnite delivery to ProChem Labs in Lynchburg, Va. for analysis for total heterotrophic bacteria counts.

[13] = SMBSC pilot demonstration, lagoon spray system; conditions: Trial 1, samplings T2-T5
Text: The exemplary system and method was designed to utilize 1.7 million gallons per day of the 35 to 40 million gallons of high strength wastewater within the lagoon as a carrier for treatment chemistry. Flow into the lagoon varied. Influent was mostly high organic strength wastewater. A typical daily flow rate approximated 500,000 gallons.
The utilized system and method sought to efficiently cover as much of the lagoon surface with treated wastewater containing excess quantities of treatment chemistry as practically possible. For spray nozzles, the system and method utilized 100 series Big Gun sprinklers (available from Nelson Irrigation Corporation of Walla Walla, Wash.) oriented in a pattern to assure maximum coverage of targeted surface area of the lagoon. […] The pressure varied depending on the demand of the spray nozzles and surface coverage demand. Further, the effectiveness relied somewhat on delivery of sufficient volume of treated wastewater containing excess treatment chemistry to the surface of the lagoon to adequately suppress sulfide at or near the surface of the lagoon. […] Treatment chemistry for the returned treated wastewater was dosed to treat sulfide within the uptake wastewater and over dosed with added treatment chemistry to accommodate the expected need for treatment within the surface water of the receiving lagoon. […] This dosage application assumed these ratios for each hour of continuous treatment.
The method used for this pilot study for dosing was estimated by taking surface and mid-depth samples of the untreated lagoon and testing for sulfide.
Station D1 referred to a dam where water flowed down through the dam into the remaining run of the retention lagoon.

[14] = Treatment of sulfides in municipal wastewater using ferric chelants and ozone; conditions: ozone ~13.4 ppm, 4 ppm ferric chelant where used; for sulfide remaining: start 13.70
Text: The raw wastewater received a dose of 4 ppm of each of the four ferric chelants (mass calculated as chelant) just prior to addition of ozone.
Ozone addition was accomplished using an ozone generator from Ozone Solutions, Sioux Center, Iowa. The generator was capable of generating up to 2 grams per hour of ozone. Injection of ozone into the wastewater was accomplished using an injection system from Ozone Solutions called the H2O-Mini. The unit is designed to treat from 1.5 to 5.7 liters per minute of wastewater. The unit was set up to deliver 6.7 mg/minute of dissolved ozone (assumed the 80% efficiency of dissolution noted by the manufacturer) to wastewater passing the injection nozzle within the H2O-mini. Each test was designed for maximum wastewater flow through the H2O-mini (5.7 liters/min).
An objective of the study will be to treat most, but not all, of the sulfide present within the individual test samples in order to determine which treatment was more efficient than the others.
Samples were taken over twenty minutes of contact time from the recirculation vessel after ozonation. For each of the four ferric chelant studies, chelants were added to the wastewater recirculation vessels just prior to starting the injection of ozone and recirculation of the liquids. The injection of ozone was applied over the prescribed period and sampled as before in the ozone only experiment.

[15] = Full scale lagoon treatment system using eductors; conditions: across all stations, eductor system, September 2016
Method: Due to concerns about fugitive airborne spray entering the environment and, potentially, drifting onto a nearby public road, SMBSC management requested an underwater eductor system be installed to replace the Nelson spray irrigation system described previously. Therefore, a full scale trial using a commercially available surface chemical application system and method was tested at the SMBSC. The objective of the test was to determine if a system designed to apply oxidation treatment chemicals just below the surface of the large wastewater lagoon at SMBSC was as effective as the spray system that minimized surface mixing. It was surmised that the system would achieve similar results to the spray application approach due to minimal disturbance to lagoon subsurface wastewater. The eductor system slowly spun in a circular pattern similar to the circular pattern of the spray system. The Serfilco eductor system pulled wastewater from the contaminated lagoon using the identical system of treatment used for the Nelson spray system. The only variation was the application mechanism of eduction versus spray. The eduction system relied on the force of the wastewater flowing back into the eductor distribution arms to force the circular motion of the arms distributing oxidation chemicals. All aspects of the system were the same except for the distribution system. […]

[16] = spray system on, April 2016, date by row, same dosage

In the case of `OO` [H2O2, hydrogen peroxide], the Toluene after treatment [1] is reported as 55.7 ppb, the Xylenes after treatment [2] is reported as 67.0 ppb and the Benzene after treatment [3] is reported as 15.1 ppb. For the same compound, the “H2S reading after 10 minutes” value ([4]; 1 ml of 15 mg/ml H2O2) was 6 ppm, the “H2S reading after 10 minutes” value ([4]; 3 ml of 15 mg/ml H2O2) was 4 ppm and the “H2S reading after 10 minutes” value ([4]; 5 ml of 15 mg/ml H2O2 sprayed on 5 L water with 10 ppm total sulfide, pH 7.0) was 3 ppm. The Ethylbenzene after treatment [5] was 13.0 ppb, the “H2S Above H2O” value [6] was 17 PPM and the “Total Sulfide 1 CM Depth” value [6] was 8.5 mg/L. For the same compound, the “Total Sulfide 2 CM Depth” value [6] was 9.1 mg/L, the “Total Sulfide 3 CM Depth” value [6] was 9.3 mg/L and the “Fecal Coliform” value (Fecal Coliform) was 53 cfu/100 mL. The “Percentage of Sulfide Treated After 30 Minutes” value ([7]; 1.5:1.0 peroxide to sulfide, Dose 3, 38.7 ppm H2O2 only (control run of the chelant named in the row)) was 59.0 and 46.5 and 56.3 and 57.0 and 55.5 and 54.7, the “Percentage of Sulfide Treated After 30 Minutes” value ([7]; 2.5:1.0 peroxide to sulfide, Dose 3, 105.8 ppm H2O2 only (control run of the chelant named in the row)) was 69.0 and 69.5 and 67.8 and 66.4 and 44.4 and 69.3 and 70.2 and the “sulfide reduction after 15 minutes, average” value ([7]; hydrogen peroxide alone, 2.5:1.0 peroxide to sulfide) was 52%. For the same compound, the “sulfide treatment after 15 minutes” value ([7]; peroxide alone, 37.8 ppm level) was 42.9%, the MtBE after treatment [8] was 15.7 ppb and the “2,4-D” value [9] was 230 ppb.
For `O=C([O-])[C@H](O)[C@@H](O)[C@H](O)[C@H](O)CO.[Na+]` [Sodium gluconate, sodium gluconate], the readily biodegradable [10] is listed as 98%.
For ferric gluconate [Fe-GLC], the average sulfide measurement ([11]; one month, five sampling locations, spray system, untreated average 1.06 mg/l) was 0.06 mg/L, the “Aqueous Sulfide, Station 1 (surface)” value [11, 16] was 0.00 mg/L and the “Aqueous Sulfide, Station 4 (surface)” value [11, 16] was 0.00 mg/L. For the same compound, the “sulfide in wastewater spray upon exiting the spray nozzles” value ([11]; with proper dosage of oxidation chemicals) was 0.00 mg/L, the “Test 1 CFUs/ml 19.8 ppm H2O2 6 ppm Fe-Chelant” value [12] was 98 CFUs/ml and the “Test 2 CFUs/ml 39.6 ppm H2O2 12 ppm Fe-Chelant” value [12] was 28 CFUs/ml. For the same compound, the “Test 3 CFUs/ml 12 ppm Fe-Chelant” value ([12]; chelant alone, no H2O2) was 22,600 CFUs/ml, the “Aqueous Sulfide, location 1S” value ([13]; same dosage, T1 before treatment 1.35) was 0 ppm and 0.00 ppm and the “Gaseous Sulfide downwind at lagoon edge, Station 2” value [13] was 0.00 ppm. The “Gaseous Sulfide downwind at lagoon edge, Station 3” value [13] was 0.00 ppm, the “Overall total percentage of sulfide reduction” value [14] was 90% and the “Overall total percentage of sulfide reduction” value ([14]; listed as Fe-Gluconate) was 90%. It also gave a sulfide remaining ([14]; 5 min contact) of 3.40 ppm, a sulfide remaining ([14]; 10 min contact) of 2.80 ppm and a sulfide remaining ([14]; 20 min contact) of 1.40 ppm. The “sulfide reduction after 15 minutes” value ([7]; 20 ppm chelant and 105.8 ppm hydrogen peroxide) was 86.8% and the average sulfide measurement [15] was 2.14 mg/L.
